Results reported in patent US9745328B2, “Flap modulators” (JANSSEN PHARMACEUTICA NV, priority 2013, dated 2017).
pIC50, pKi: −log10 of the molar value. Where a name gives a salt, the structure may show the parent alone.

Assays:
[1] = tested on: leukotriene pathway in human whole blood (LTB4); assay: Human whole blood assay (LTB4 levels after calcium ionophore A23187 stimulation); type: cell-based; conditions: Homo sapiens, human whole blood diluted 1:1, A23187 stimulation; Table 6 (additional runs); read-out: Human Whole Blood LTB4 IC50 1:1
Experimental: The ability of the compounds of the present invention to treat a FLAP-mediated disease and/or disorder, or associated symptoms or complications thereof, was determined using the following procedures. Binding assay data represent the average value obtained from two different assay plates, with samples run in duplicate on each plate. Human whole blood assay data represent a single replicate on an assay plate using whole blood from at least one healthy donor.
An in vitro cellular assay was performed using human whole blood collected in heparin-containing tubes, which was used to test the ability of compounds to modulate the leukotriene pathway in human whole blood. The blood was diluted 1:1 in RPMI medium, pre-incubated for 15 min at 37° Celsius with test compounds at various concentrations, and then stimulated with calcium ionophore, A23187 (7 μg/mL), for 30 min at 37° Celsius. The samples were then centrifuged and plasma was removed. The plasma was diluted in assay buffer and LTB4 levels were measured using a commercial kit (Enzo Life Sciences). The concentration of each compound that was required for half-maximal inhibition (modulation) of recombinant enzyme activity (IC50) was calculated by a 4-parameter equation using the program GraphPad Prism (GraphPad software).

human FLAP = human FLAP (Homo sapiens (Human), UniProt P20292); assay: FLAP binding assay (HTRF format); conditions: human FLAP wild type, Table 6 (additional runs)
Summary of the method: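 HTRF ratio read-out; two independent plates, samples in duplicate on each, values averaged across plates.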

Chain of human FLAP (P20292 whole entry): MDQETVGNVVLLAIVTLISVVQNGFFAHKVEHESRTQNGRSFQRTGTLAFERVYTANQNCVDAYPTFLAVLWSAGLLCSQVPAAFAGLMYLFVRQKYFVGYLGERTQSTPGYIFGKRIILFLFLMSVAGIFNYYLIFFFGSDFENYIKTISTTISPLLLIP

Row | SMILES | pIC50 [1] | pKi (human FLAP)
1 | CC(=O)N1CCC(S(=O)(=O)c2ncccc2-c2ccc(-c3cnc(N)cn3)c(F)c2)CC1 [Example 816, 1-((3-(4-(2-Aminopyrazin-5-yl)-3-fluorophenyl)pyridine-2-yl)sulfonyl)piperidin-1-yl)ethanone hydrogen chloride salt] | 7.21 | 7.43
2 | Nc1cnc(-c2ccc(-c3cccnc3S(=O)(=O)C3CC3)cc2F)cn1 [Example 829, 5-{4-[2-(Cyclopropylsulfonyl)pyridin-3-yl]-2-fluorophenyl}pyrazin-2-amine formic acid salt] | 8.05 | 8.24
3 | Nc1ncc(-c2ccc(-c3cccnc3S(=O)(=O)C3CCOCC3)cc2F)cn1 [Example 831, 5-{2-Fluoro-4-[2-(tetrahydro-2H-pyran-4-ylsulfonyl)pyridin-3-yl]phenyl}pyrimidin-2-amine formic acid salt] | 7.14 | 6.83
4 | N#Cc1ncc(-c2ccccc2-c2ccc(-c3cnc(N)cn3)c(F)c2)cn1 [Example 849, 5-[4′-(5-Aminopyrazin-2-yl)-3′-fluorobiphenyl-2-yl]pyrimidine-2-carbonitrile] | 5.41 | 7.42
5 | Nc1ccc(-c2ccccc2-c2ccc(-c3cnc(N)cn3)c(F)c2)cn1 [Example 861, 5-[2′-(6-Aminopyridin-3-yl)-3-fluorobiphenyl-4-yl]pyrazin-2-amine] | 7.35 | 8.40
6 | Nc1cnc(-c2ccc(-c3ccccc3-c3cnc(N4CCNCC4)nc3)cc2F)cn1 [Example 862, 5-[3-Fluoro-2′-(2-piperazin-1-ylpyrimidin-5-yl)biphenyl-4-yl]pyrazin-2-amine] | 6.92 | 6.91
7 | NCCn1cc(-c2ccccc2-c2ccc(-c3cnc(N)cn3)c(F)c2)cn1 [Example 864, 5-{2′-[1-(2-Aminoethyl)-1H-pyrazol-4-yl]-3-fluorobiphenyl-4-yl]pyrazin-2-amine] | 6.38 | 6.66
8 | Nc1ccc(-c2ccccc2-c2ccc(-c3cnc(N)nc3)c(F)c2)cn1 [Example 865, 5-[2′-(6-Aminopyridin-3-yl)-3-fluorobiphenyl-4-yl]pyrimidin-2-amine] | 6.72 | 7.02
9 | CNc1ncc(-c2ccccc2-c2ccc(-c3cnc(N)nc3)c(F)c2)cn1 [Example 866, 5-[4′-(2-Aminopyrimidin-5-yl)-3′-fluorobiphenyl-2-yl]-N-methylpyrimidin-2-amine] | 6.27 | 6.77
10 | Nc1ncc(-c2ccc(-c3ccccc3-c3ccnc(N)n3)cc2F)cn1 [Example 867, 4-[4′-(2-Aminopyrimidin-5-yl)-3′-fluorobiphenyl-2-yl]pyrimidin-2-amine] | 6.10 | 6.61
11 | Nc1cnc(-c2ccc(-c3ccccc3-c3ccnc(N)n3)cc2F)cn1 [Example 868, 4-[4′-(5-Aminopyrazin-2-yl)-3′-fluorobiphenyl-2-yl]pyrimidin-2-amine] | 6.46 | 7.67
12 | COCCn1cc(-c2ccccc2-c2ccc(-c3cnc(N)cn3)c(F)c2)cn1 [Example 869, 5-{3-Fluoro-2′-[1-(2-methoxyethyl)-1H-pyrazol-4-yl]biphenyl-4-yl}pyrazin-2-amine] | 6.07 | 6.85
13 | Nc1cnc(-c2ccc(-c3ccccc3-c3cn[nH]c3)cc2F)cn1 [Example 870, 5-[3-Fluoro-2′-(1H-pyrazol-4-yl)biphenyl-4-yl]pyrazin-2-amine] | 7.06 | 7.84
14 | N#CCn1cc(-c2ccccc2-c2ccc(-c3cnc(N)cn3)c(F)c2)cn1 [Example 871, {4-[4′-(5-Aminopyrazin-2-yl)-3′-fluorobiphenyl-2-yl]-1H-pyrazol-1-yl}acetonitrile] | 6.43 | 7.60
15 | CNc1ncc(-c2ccccc2-c2ccc(-c3cnc(N)cn3)c(F)c2)cn1 [Example 872, 5-[4′-(5-Aminopyrazin-2-yl)-3′-fluorobiphenyl-2-yl]-N-methylpyrimidin-2-amine] | 7.28 | 8.08
16 | Nc1cnc(-c2ccc(-c3ccccc3-c3cnsc3)cc2F)cn1 [Example 873, 5-(3-Fluoro-2′-isothiazol-4-ylbiphenyl-4-yl)pyrazin-2-amine] | 6.47 | 7.64
17 | Nc1cnc(-c2ccc(-c3ccccc3-c3cnn(CCO)c3)cc2F)cn1 [Example 874] | 6.45 | 7.29
18 | N#CCn1cc(-c2ccccc2-c2ccc(-c3cnc(N)nc3)c(F)c2)cn1 [Example 875, {4-[4′-(2-Aminopyrimidin.-5-yl)-3′-fluorobiphenyl-2-yl]-1H-pyrazol-yl}acetonitrile] | 6.07 | 6.77

Row | SMILES | pIC50 [1] | pKi (human FLAP)
19 | Nc1ncc(-c2ccc(-c3ccccc3-c3cn[nH]c3)cc2F)cn1 [Example 876, 5-[3-Fluoro-2′-(1H-pyrazo-4-yl)biphenyl-4-yl]pyrimidin-2-amine] | 5.97 | 7.10
20 | C[C@H](NS(=O)(=O)c1ccccc1-c1cnc(-c2cnc(N)nc2)c(F)c1)C(F)(F)F [Example 877, 2-[6-(2-Aminopyrimidin-5-yl)-5-fluoropyridin-3-yl]-N-[(1S)-2,2,2-trifluoro-1-methylethyl]penzenesulfonamide as the hydrochloride salt] | 7.98 | 8.33
21 | Nc1ncc(-c2ncc(-c3ccccc3S(=O)(=O)C3CC3)cc2F)cn1 [Example 878, 5-{5-[2-(Cyclopropylsulfonyl)phenyl]-3-fluoropyridin-2-yl}pyrimidin-2-amine] | 6.49 | 6.56
22 | C[C@H](O)CNS(=O)(=O)c1ccccc1-c1cnc(-c2cnc(N)nc2)c(F)c1 [Example 879, 2-[6-(2-Aminopyrimidin-5-yl)-5-fluoropyridin-3-yl]-N-[(2S)-2-hydroxypropyl]benzenesulfonamide] | 6.97 | 6.77
23 | C[C@@H](CO)NS(=O)(=O)c1ccccc1-c1cnc(-c2cnc(N)nc2)c(F)c1 [Example 880, 2-[6-(2-Aminopyrimidin-5-yl)-5-fluoropyridin-3-yl]-N-[(1S)-2-hydroxy-1-methylethyl]benzenesulfonamide] | 6.75 | 7.06
24 | C[C@H](CO)NS(=O)(=O)c1ccccc1-c1cnc(-c2cnc(N)nc2)c(F)c1 [Example 881, 2-[6-(2-Aminopyrimidin-5-yl)-5-fluoropyridin-a-yl]-N-[(1R)-2-hydroxy-1-methylethyl]benzenesulfonamide] | 6.89 | 7.12
25 | Nc1ncc(-c2ncc(-c3ccccc3S(=O)(=O)NCCO)cc2F)cn1 [Example 882, 2-[6-(2-Aminopyrimidin-5-yl)-5-fluoropyridin-3-yl]-N-(2-hydroxyethyl)benzenesulfonamide] | 7.16 | 6.78
26 | C[C@@H](NS(=O)(=O)c1ccccc1-c1cnc(-c2cnc(N)nc2)c(F)c1)C(F)(F)F [Example 883, 2-[6-(2-Aminopyrimidin-5-yl)-5-fluoropyridin-3yl]-N-[(1R)-2,2,2-trifluoro-1-methylethyl]benzenesulfonamide] | 7.16 | 7.47
27 | Nc1cnc(-c2ccc(-c3ccccc3OCC3CCS(=O)(=O)CC3)cc2F)cn1 [Example 884, 5-{2′-[(1,1-Dioxidotetrahydro-2H-thiopyran-4-yl)methoxy]-3-fluorobiphenyl-4-yl}pyrazin-2-amine] | 6.15 | 6.62
28 | Nc1cnc(-c2ccc(-c3ccccc3OC3CCS(=O)(=O)CC3)cc2F)cn1 [Example 885, 5-{2′-[(1,1-Dioxidotetrahydro-2H-thiopyran-4-yl)oxy]-3-fluorobiphenyl-4-yl}pyrazin-2-amine] | 5.98 | 7.39
29 | Nc1cnc(-c2ccc(-c3ccccc3OCc3ccc(C(=O)O)cc3)cc2F)cn1 [Example 886, 4-(([4′-(5-Aminopyrazin-2-yl)-3′-fluorobiphenyl-2-yl]oxy}methyl)benzoic acid] | < 6.00 | 8.24
30 | Nc1ncc(-c2ccc(-c3ccccc3OCc3ccc(C(=O)O)cc3)cc2F)cn1 [Example 887, 4-({[4′-(2-Aminopyrimidin-5-yl)-3′-fluorobiphenyl-2-yl]oxy}methyl)benzoic acid] | < 6.00 | 7.52
31 | Nc1cnc(-c2ccc(-c3ccccc3Oc3ccc(C(=O)O)cc3)cc2F)cn1 [Example 888, 4-{[4′-(5-Aminopyrazin-2-yl)-3′-fluorobiphenyl-2-yl]oxy}benzoic acid] | 6.44 | 9.15
32 | Nc1ncc(-c2ccc(-c3ccccc3Oc3ccc(C(=O)O)cc3)cc2F)cn1 [Example 889, 4-{[4′-(2-Aminopyrimidin-5-yl)-3′-fluorobiphenyl-2-yl]oxy}benzoic acid] | 6.63 | 8.41
33 | NC(=O)c1ccc(Oc2ccccc2-c2ccc(-c3cnc(N)nc3)c(F)c2)cc1 [Example 890, 4-{[4′-(2-Aminopyrimidin-5-yl)-3′-fluorobiphenyl-2-yl]oxy)benzamide] | 7.21 | 8.43
34 | Nc1cnc(-c2ccc(-c3ccccc3O[C@H]3CC[C@H](N)CC3)cc2F)cn1 [Example 891] | 6.12 | 7.50
35 | Nc1cnc(-c2ccc(-c3ccc(C(F)(F)F)cc3N)cc2F)cn1 [Example 892, 5-[2′-Amino-3-fluoro-4′-(trifluoromethyl)biphenyl-4-yl]pyrazin-2-amine] | 6.14 | 7.11
